Reference: patent US7217724B2, “Indole, indazole, and benzazole derivative” (Dainippon Sumitomo Pharma Co., Ltd., priority 2002, dated 2007)
Counter-ions that a name gives are not always drawn.

Assays:
human β1-receptor = molecular target: T1, human β1-receptor (Homo sapiens, UniProt P08588); experiment: Human β1-receptor stimulation test (cAMP production in THP-1 cells); format: cell-based
T1 construct: THP-1 cell line, i.e., cells expressing both human β2- and β1-receptors; host or cells: THP-1 cells
From the text: (§1) Human β3, β2 and β1-receptor stimulation test
(§2) Human β3-receptor-stimulating activity was studied using SK-N-MC cell line, i.e., cells permanently expressing human β3- and human β1-receptors (SK-N-MC cells, purchased from Dainippon Pharmaceutical Co., Ltd.), and human β2- and β1-receptor-stimulating activities were studied using THP-1 cell line, i.e., cells expressing both human β2- and β1-receptors (THP-1 cells, purchased Dainippon Pharmaceutical Co., Ltd.).
(§3) The β3-receptor stimulating activity of a test compound (10^−9 to 10^−5 M) was studied using as an index cyclic AMP (hereinafter, referred to as cAMP) producing activity of SK-N-MC cells at almost confluent in the presence of a β1-receptor inhibitor ((±)-2-hydroxy-5-(2-((2-hydroxy-3-(4-(1-methyl-4-(trifluoromethyl)-1H-imidazol-2-yl)phenoxy)propyl)-amino)ethoxy)benzamide methanesulfonate, CGP-20712A (Sigma-Aldrich), 10^−6M), wherein said SK-N-MC cells were seeded into a 96-well plate at a cell density of 2×10^4 cells/well and had been cultured for 3 days. […] The cAMP production in the cells was measured by ELISA method. […]

β1-adrenoceptor = experiment: Autonomic beat of the excised right atrium specimen (positive chronotropic action, Magnus method); set-up: species or system Hartley guinea pig; conditions: method of Experiment 2
Protocol: Effect of a medicament on autonomic beat of the excised right atrium specimen based on β1-adrenoceptor-stimulating activity (study on positive chronotropic action)
The heart of Hartley guinea pig was excised, and a right atrium specimen was prepared therefrom and the experiment was carried out thereon according to Magnus method. The specimen was hung at 34° C. in Krebs-Henseleit solution to which a mixed gas of 95% oxygen and 5% carbon dioxide was aerated, and loaded so that the maximum resting tension became about 0.5 g. The autonomic beat of the right atrium was detected through a pressure transducer, and the tension and the beat were continuously recorded onto a linear recorder. A medicament was cumulatively added every time the beat became plateau. […]
In order to show the divergence between β3-stimulating activity/β1-stimulating activity in the experimental results, the EC50 value of positive chronotropic action of the test compound of Examples obtained in Experiment 2 was divided by the EC50 value of human β3-stimulating activity of said compound obtained in Experiment 1, which is the main activity in Experiment 1. The results are expressed by relative values, which are calculated by counting the value of the reference compound (AJ 9677) as 1.

human β3-receptor = molecular target: T2, human β3-receptor (Homo sapiens, UniProt P13945); experiment: Human β3-receptor stimulation test (cAMP production in SK-N-MC cells); format: cell-based; conditions: in the presence of β1-receptor inhibitor CGP-20712A 10^−6 M, read-out: EC50 value of β3-stimulating activity
T2 construct: SK-N-MC cell line, i.e., cells permanently expressing human β3- and human β1-receptors; host or cells: SK-N-MC cells
From the text: as §1, §2, §3

human β2-receptor = molecular target: T3, human β2-receptor (Homo sapiens, UniProt P07550); experiment: Human β2-receptor stimulation test (cAMP production in THP-1 cells); format: cell-based; conditions: with CGP-20712A, activity not observed up to a maximum concentration, read-out: β2-stimulating activity
T3 construct: THP-1 cell line, i.e., cells expressing both human β2- and β1-receptors; host or cells: THP-1 cells
From the text: as §1, §2, §3

T1 sequence (P08588 whole entry): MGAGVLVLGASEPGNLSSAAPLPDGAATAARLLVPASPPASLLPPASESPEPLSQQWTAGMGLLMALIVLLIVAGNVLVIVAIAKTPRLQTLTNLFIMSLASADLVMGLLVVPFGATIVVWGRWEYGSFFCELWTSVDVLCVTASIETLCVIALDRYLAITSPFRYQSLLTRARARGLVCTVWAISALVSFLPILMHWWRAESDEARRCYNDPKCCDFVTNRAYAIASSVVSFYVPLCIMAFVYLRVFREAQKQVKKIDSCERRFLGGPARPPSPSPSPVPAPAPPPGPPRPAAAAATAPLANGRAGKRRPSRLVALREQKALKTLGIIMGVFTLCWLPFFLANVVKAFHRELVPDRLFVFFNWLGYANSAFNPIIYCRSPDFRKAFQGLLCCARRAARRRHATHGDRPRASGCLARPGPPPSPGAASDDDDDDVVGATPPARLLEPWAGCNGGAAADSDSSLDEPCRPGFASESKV
T3 sequence (P07550 whole entry): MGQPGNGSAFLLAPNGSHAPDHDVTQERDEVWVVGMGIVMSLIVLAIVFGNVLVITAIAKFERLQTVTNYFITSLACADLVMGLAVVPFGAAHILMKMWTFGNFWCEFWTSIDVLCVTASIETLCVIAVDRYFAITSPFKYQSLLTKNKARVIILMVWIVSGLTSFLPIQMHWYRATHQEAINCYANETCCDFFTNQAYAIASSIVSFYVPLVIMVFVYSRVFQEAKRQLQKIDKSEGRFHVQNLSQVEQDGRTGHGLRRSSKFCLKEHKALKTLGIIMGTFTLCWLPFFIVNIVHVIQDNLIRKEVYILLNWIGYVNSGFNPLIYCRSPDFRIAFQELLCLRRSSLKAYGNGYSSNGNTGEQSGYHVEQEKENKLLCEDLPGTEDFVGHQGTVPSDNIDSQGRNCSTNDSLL
T2 sequence (P13945 whole entry): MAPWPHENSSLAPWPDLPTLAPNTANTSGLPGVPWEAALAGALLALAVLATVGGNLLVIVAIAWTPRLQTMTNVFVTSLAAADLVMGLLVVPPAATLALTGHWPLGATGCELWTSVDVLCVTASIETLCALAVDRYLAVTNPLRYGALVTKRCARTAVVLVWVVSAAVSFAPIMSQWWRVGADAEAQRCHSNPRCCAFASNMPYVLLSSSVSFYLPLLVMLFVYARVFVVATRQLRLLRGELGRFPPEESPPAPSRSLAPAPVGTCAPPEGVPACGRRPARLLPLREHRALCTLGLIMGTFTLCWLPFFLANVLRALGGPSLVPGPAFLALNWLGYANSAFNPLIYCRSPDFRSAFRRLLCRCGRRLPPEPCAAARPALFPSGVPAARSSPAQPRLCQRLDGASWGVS

C[C@H](Cc1c[nH]c2c(OCC(=O)O)cccc12)NC[C@H](O)c1cccc(Cl)c1 [AJ 9677, reference compound]
β1- and/or β2-adrenoceptor-stimulating activities in the conventional evaluation system (human β1-receptor; cells, method of Experiment 1 (β1 and β2, THP-1 cells)): does not exhibit β1- and/or β2-adrenoceptor-stimulating activities
β1- and/or β2-adrenoceptor-stimulating activities in the evaluation system using tissues (β1-adrenoceptor): exhibits β1- and/or β2-adrenoceptor-stimulating activities

C[C@H](Cc1c[nH]c2c(OCC(=O)O)cccc12)NC[C@H](O)c1cccnc1 [Example 2, {3-[(2 R)-2-((2R)-2-Hydroxy-2-pyridin-3-ylethylamino)propyl]-1 H-indol-7-yloxy}acetic acid.2 trifluoroacetate]
EC50 (human β1-receptor; THP-1 cells, cAMP production, with ICI-118551, activity not observed up to a maximum concentration, read-out: β1-stimulating activity): > 10 µM
EC50 (human β3-receptor): 48 nM
EC50 (human β2-receptor): > 10 µM
